This is an account of results in patent publication EP4818178A1, “PREPARATION AND USE OF PYRIMIDOTHIOPYRANONE KRAS MUTANT PROTEIN INHIBITOR” (Ya Therapeutics Inc, priority 2024, dated 2025).

What is called IC50 is the midpoint of a concentration-inhibition curve.

This test concerns the target KRasG12D (Homo sapiens, UniProt P01116, G12D). The experiment in a line: KRAS inhibitory activity test, TR-FRET (inhibition of binding of KRasG12D to GTP, SOS/GTP nucleotide exchange). Conditions: read-out: IC50 values of the compounds for inhibiting KRAS enzymes, G12D. In kind it is biochemical. The method, then:
• 1. […] Reagent Preparation: • a. Storage Reagents:
Prepare a 1L solution by mixing 20mL of 1000mM HEPES, 20mL of 500mM EDTA, 10mL of 5M sodium chloride, 0.1mL of 100% Tween 20, and 949.9mL of water. Sterilize by filtration and store at 4°C.
Prepare a 1L solution by mixing 20mL of 1000mM HEPES, 10mL of 1000mM magnesium chloride, 30mL of 5M sodium chloride, 0.05mL of 100% Tween 20, and 939.95mL of water. Sterilize by filtration and store at 4°C. 3) KRAS/Bodipy GDP/Tb-SA Mixture: Mix 9.5 µL of 95 µM KRasG12D protein with 440.5 µL of KRAS nucleotide exchange buffer. Incubate at room temperature for 1 hour. Then, mix with 8.4 µL of 17.9 µM Tb-SA, 1.8 µL of 5 mM Bodipy GDP, and 9539.8 µL of KRAS experimental buffer to prepare […]. After mixing, incubate at room temperature for 6 hours and store at -80°C.
• 1) KRAS Enzyme Solution: Mix 73.3 µL of KRAS/Bodipy GDP/Tb-SA mixture with 2126.7 µL of KRAS experimental buffer to prepare a 2200 µL solution. • 2) SOS/GTP Mixture
c. Experimental Procedure: Mix 1.59 µL of 166 µM SOS protein with 198 µL of 100 mM... GTP and 0.41 µL KRAS buffer were prepared to a 2200 µL solution. The stock solution concentration of the control compound was 1 mM, and the stock solution concentration of the test compound was 10 mM. 9 µL of the control compound and the test compound were transferred to a 384-LDV plate. The compound on the LDV plate was 3-fold diluted 10-point using Bravo. 9 nL of the compound on the LDV plate was transferred to the experimental plate using ECHO. 3 µL of a 3 nM Kras/0.5 nM TB-SA/30 nM BodipyGDP mixture and 3 µL of Ras buffer were added to each well of the experimental plate using a Dragonfly autopilot. The plate was centrifuged at 1000 rpm for 1 minute. The plate was incubated at room temperature for 1 hour. 3 µL of 120 nM SOS/9 mM KRAS buffer was added to each well of the experimental plate using a Dragonfly autopilot. The […] was centrifuged at 1000 rpm for 1 minute; the plate was incubated at room temperature for 1 hour; the plate was read and the data were recorded using Envision; the data were analyzed using Excel and Xlfit to calculate the IC50of the test compound. "++++" indicates IC50≤ 10 nM; "+++" indicates 10 nM < IC50≤ 100 nM; "++" indicates 100 nM < IC50≤ 2000 nM; "+" indicates 2000 nM < IC50.
On the technique in general: Time-resolved FRET reads energy transfer from a long-lived donor to a nearby acceptor.
For the compound `Cc1cc(N)cc([C@@H]2Cc3nc(OC[C@@]45CCCN4C[C@H](F)C5)nc(N4CC5CCC(C4)N5)c3CS2(=O)=O)c1C(F)(F)F` [Compound 37A], the IC50 is at most 10 nM.
For `Cc1cc(O)c(F)c([C@H]2Cc3nc(OC[C@@]45CCCN4C[C@H](F)C5)nc(N4C[C@H]5CC[C@@H](C4)N5)c3CS2(=O)=O)c1C(F)(F)F` [Compound 2B, (7R)-4-((1R,5S)-3,8-diazabicyclo[3.2.1]octane-3-yl)-7-(2-fluoro-3-hydroxy-5-methyl-6-(trifluoromethyl)phenyl)-2-(((2R,7AS)-2-fluorotetrahydro-1H-pyrrolazin-7a(5H)-yl)methoxy)-7,8-dihydro-5H-thiopyrano[4,3-d]pyrimidine-6,6-dioxide] the value was at most 10 nM; for `Cc1cc(N)nc(C2Cc3nc(OC[C@@]45CCCN4CC(=CF)C5)nc(N4CC5CCC(C4)N5)c3CS2(=O)=O)c1C(F)(F)F` (stereo partly drawn) [Compound 19, 7-(6-amino-4-methyl-3-(trifluoromethyl)pyridin-2-yl)-2-(((S)-2-(fluoromethylene)tetrahydro-1H-pyrrolazin-7a(5H)-yl)methoxy)-4-(3,8-diazabicyclo[3.2.1]octane-3-yl)-7,8-dihydro-5H-thiopyrano[4,3-d]pyrimidine-6,6-dioxide], at most 10 nM.
For `Cc1cc(N)nc([C@H]2Cc3nc(OC[C@@]45CCCN4C[C@H](F)C5)nc(N4C[C@H]5CC[C@@H](C4)N5)c3CS2(=O)=O)c1C(F)(F)F` [Compound 3B, (7R)-7-(6-amino-4-methyl-3-(trifluoromethyl)pyridin-2-yl)-4-((1R,5S)-3,8-diazabicyclo[3.2.1]octane-3-yl)-2-(((2R,7AS)-2-fluorotetrahydro-1H-pyrrolazin-7a(5H)-yl)methoxy)-7,8-dihydro-5H-thiopyrano[4,3-d]pyrimidine 6,6-Dioxide] the value was at most 10 nM; for `C=C1CN2CCC[C@@]2(COc2nc3c(c(N4CC5CCC(C4)N5)n2)CS(=O)(=O)[C@H](c2c(F)c(N)cc(C)c2C(F)(F)F)C3)C1` [Compound 11A, (7S)-7-(3-amino-2-fluoro-5-methyl-6-(trifluoromethyl)phenyl)-4-(3,8-diazabicyclo[3. 2.1]octane-3-yl)-2-(((S)-2-(methylene)tetrahydro-1H-pyrrolazin-7a(5H)-yl)methoxy)-7,8-dihydro-5H-thiopyrano[4,3-d]pyrimidine-6,6-dioxide], at most 10 nM; for `C=C1CN2CCC[C@@]2(COc2nc3c(c(N4CC5CCC(C4)N5)n2)CS(=O)(=O)[C@H](c2nc(N)cc(C)c2C(F)(F)F)C3)C1` [Compound 20A, (7S)-7-(6-amino-4-methyl-3-(trifluoromethyl)pyridin-2-yl)-2-(((S)-2-(methylene)tetra hydro-1H-pyrrolazin-7a(5H)-yl)methoxy)-4-(3,8-diazabicyclo[3.2.1]octane-3-yl)-7,8-dihydro-5H-thiopyrano[4,3-d]pyrimidine-6,6-dioxide], at most 10 nM.
With `Cc1cc(N)nc([C@@H]2Cc3nc(OC[C@@]45CCCN4C[C@H](F)C5)nc(N4CCC[C@@](C)(O)C4)c3CS2(=O)=O)c1C(F)(F)F` [Compound 7A, (7S)-7-(6-amino-4-methyl-3-(trifluoromethyl)pyridin-2-yl)-2-(((2R,7AS)-2-fluorotetrahydro-1H-pyrrolazin-7a(5H)-yl)methoxy)-4-((R)-3-hydroxy-3-methylpiperidin-1-yl) -7,8-dihydro-5H-thiopyrano[4,3-d]pyrimidine-6,6-dioxide] the figure was at most 10 nM; with `Cc1cc(O)c(F)c([C@H]2Cc3nc(OC[C@@]45CCCN4C[C@H](F)C5)nc(N4CCC[C@@](C)(O)C4)c3CS2(=O)=O)c1C(F)(F)F` [Compound 6B, (7R)-7-(2-fluoro-3-hydroxy-5-methyl-6-(trifluoromethyl)phenyl)-2-(((2R,7AS)-2-fluorotetrahydro-1H-pyrrolazin-7a(5H)-yl)methoxy)-4-((R)-3-hydroxy-3-methylpiperidin-1-yl)-7,8-dihydro-5H-thiopyrano[4,3-d]pyrimidine-6,6-dioxide], 10 to 100 nM; with `Cc1cc(O)c(F)c([C@@H]2Cc3nc(OC[C@@]45CCCN4C[C@H](F)C5)nc(N4C[C@H]5CC[C@@H](C4)N5)c3CS2(=O)=O)c1C(F)(F)F` [Compound 2A, (7S)-4-((1R,5S)-3,8-diazabicyclo[3.2.1]octane-3-yl)-7-(2-fluoro-3-hydroxy-5-methyl-6-(trifluoromethyl)phenyl)-2-(((2R,7AS)-2-fluorotetrahydro-1H-pyrrolazin-7a(5H)-yl)methoxy)-7,8-dihydro-5H-thiopyrano[4,3-d]pyrimidine-6,6-dioxide], 10 to 100 nM.
As for `Cc1cc(N)c(F)c(C2Cc3nc(OC[C@@]45CCCN4CC(=CF)C5)nc(N4CC5CCC(C4)N5)c3CS2(=O)=O)c1C(F)(F)F` (stereo partly drawn) [Compound 10, 7-7-(3-amino-2-fluoro-5-methyl-6-(trifluoromethyl)phenyl)-4-(3,8-diazabicyclo[3.2.1]octane-3-yl)-2-(((S)-2-(fluoromethylene)tetrahydro-1H-pyrrolazin-7a(5H)-yl)methoxy) -7,8-dihydro-5H-thiopyrano[4,3-d]pyrimidine-6,6-dioxide], the IC50 was at most 10 nM.
With `Cc1cc(N)c(F)c([C@@H]2Cc3nc(OC[C@@]45CCCN4C[C@H](F)C5)nc(N4C[C@H]5CC[C@@H](C4)N5)c3CS2(=O)=O)c1C(F)(F)F` [Compound 36A, (7S)-7-(3-amino-2-fluoro-5-methyl-6-(trifluoromethyl)phenyl)-4-((1R,5S)-3,8-diazabicyclo[3.2.1]octane-3-yl)-2-(((2R,7AS)-2-fluorotetrahydro-1H-pyrrolazin-7a(5H)-yl)methoxy)-7,8-dihydro-5H-thiopyrano[4,3-d]pyrimidine 6,6-Dioxide] the figure was at most 10 nM; with `Cc1cc(N)c(F)c([C@@H]2Cc3nc(OC[C@@]45CCCN4C[C@H](F)C5)nc(N4CCC[C@@](C)(O)C4)c3CS2(=O)=O)c1C(F)(F)F` [Compound 5A, (7S)-7-(3-amino-2-fluoro-5-methyl-6-(trifluoromethyl)phenyl)-2-(((2R,7AS)-2-fluorotetrahydro-1H-pyrrolazin-7a(5H)-yl)methoxy)-4-((R)-3-hydroxy-3-methylpiperidin-1-yl)-7,8-dihydro-5H-thiopyrano[4,3-d]pyrimidine-6,6-dioxide], 10 to 100 nM.
For `Cc1cc(O)nc([C@H]2Cc3nc(OC[C@@]45CCCN4C[C@H](F)C5)nc(N4C[C@H]5CC[C@@H](C4)N5)c3CS2(=O)=O)c1C(F)(F)F` [Compound 4B, (7R)-4-((1R,5S)-3,8-diazabicyclo[3.2.1]octane-3-yl)-2-(((2R,7AS)-2-fluorotetrahydro-1H-pyrrolazin-7a(5H)-yl)methoxy)-7-(6-hydroxy-4-methyl-3-(trifluoromethyl)pyridin-2-yl)-7,8-dihydro-5H-thiopyrano[4,3-d]pyrimidine-6,6-dioxide] the value was 10 to 100 nM; for `CC#Cc1cc(N)c(F)c(C2Cc3nc(OC[C@@]45CCCN4CC(=C(F)F)C5)nc(N4CC5CCC(C4)N5)c3CS2(=O)=O)c1C(F)(F)F` (stereo partly drawn) [Compound 23, 7-(3-amino-2-fluoro-5-(prop-1-yn-1-yl)-6-(trifluoromethyl)phenyl)-4-(3,8-diazabicyclo[3.2.1]octane-3-yl)-2-(((S)-2-(difluoromethylene)tetrahydro-1H-pyrrolazin-7a(5H)-y 1)methoxy)-7,8-dihydro-5H-thiopyrano[4,3-d]pyrimidine-6,6-dioxide], at most 10 nM; for “(7S)-7-(6-amino-4-methyl-3-(trifluoromethyl)pyridin-2-yl)-2-(((2R,7AS)-2-fluorotetr ahydro-1H-pyrrolazin-7a(5H)-yl)methoxy)-4-((R)-3-hydroxy-3-methylpiperidin-1-yl) -7,8-dihydro-5H-thiopyrano[4,3-d]pyrimidine-6,6-dioxide [Compound 8A]”, at most 10 nM.
With `Cc1cc(N)cc(C2Cc3nc(OC[C@@]45CCCN4CC(=C(F)F)C5)nc(N4CC5CCC(C4)N5)c3CS2(=O)=O)c1C(F)(F)F` (some centres unmarked) [Compound 40] the figure was at most 10 nM; with `Cc1cc(N)c(F)c([C@@H]2Cc3nc(OC[C@@]45CCCN4CC(=C(F)F)C5)nc(N4CC5CCC(C4)N5)c3CS2(=O)=O)c1C(F)(F)F` [Compound 9A, (7S)-7-(3-amino-2-fluoro-5-methyl-6-(trifluoromethyl)phenyl)-4-(3,8-diazabicyclo[3. 2.1]octane-3-yl)-2-(((S)-2-(difluoromethylene)tetrahydro-1H-pyrrolazin-7a(5H)-yl)methoxy)-7,8-dihydro-5H-thiopyrano[4,3-d]pyrimidine-6,6-dioxide], at most 10 nM.
